This note sets out measurements from patent US9040528B2, “Chemical compounds 542” (AstraZeneca AB, priority 2008, dated 2015).

A word on the pIC50: it is −log10 of the IC50, conventionally taken in molar units.

Structures are written as SMILES. pIC50: −log10 of the molar value.

One test concerns the target Escherichia coli DNA gyrase A/B tetramer (Escherichia coli (strain K12), UniProt P0AES4+P0AES6). Description: DNA gyrase supercoiling activity fluorescence polarisation assay. Type of test: biochemical.
Conditions: not given
A digest of the protocol:
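Supercoiling reactions quenched with 40 nM 5′-BODIPY-FL triplex-forming oligonucleotide probe in pH 3.5 NaCl/sodium acetate buffer; after 60 min, fluorescence anisotropy read (ex 485/em 535 nm). IC50 by nonlinear regression, normalised to 0.8% DMSO (100% activity) and 5 μM ciprofloxacin (0% activity).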
In general terms: In fluorescence polarisation assays a small probe gives low polarisation when free and higher when bound to something large.
`Cc1noc2c(F)c3c(cc12)CC1(C(=O)NC(=O)NC1=O)[C@H]1[C@H](C)C[C@H](C)CN31` (relative stereo) [Example 77, (2S,4R,4aR)-rel-11-fluoro-2,4,8-trimethyl-1,2,3,4,4a,6-hexahydro-1′H-spiro[isoxazolo[4,5-g]pyrido[1,2-a]quinoline-5,5′-pyrimidine]-2′,4′,6′(3′H)-trione] had a pIC50 of 6.52.

The same test, now with this note: 5 nM enzyme, relaxed plasmid, 0.3 mM ATP, ambient temperature; read-out: E. coli DNA gyrase supercoiling IC50.
Consider `C[C@@H]1CN2c3c(cc4c(-n5cc(Cl)cn5)noc4c3F)CC3(C(=O)NC(=O)NC3=O)[C@H]2[C@H](C)O1` (relative stereo) [Example 61, (2R,4S,4aS)-rel-8-(4-chloro-1H-pyrazol-1-yl)-11-fluoro-2,4-dimethyl-1,2,4,4a-tetrahydro-2′H,6H-spiro[1,4-oxazino[4,3-a][1,2]oxazolo[4,5-g]quinoline-5,5′-pyrimidine]-2′,4′,6′(1′H,3′H)-trione], for which the pIC50 was 5.03.

In the case of `CSc1noc2c(F)c3c(cc12)CC1(C(=O)NC(=O)NC1=O)[C@H]1[C@H](C)O[C@H](C)CN31` (relative stereo) [Example 62, (2R,4S,4aS)-rel-11-fluoro-2,4-dimethyl-8-(methylsulfanyl)-1,2,4,4a-tetrahydro-2′H,6H-spiro[1,4-oxazino[4,3-a][1,2]oxazolo[4,5-g]quinoline-5,5′-pyrimidine]-2′,4′,6′(1′H,3′H)-trione], the pIC50 is 6.05. Take `Cc1cc(C)n(-c2noc3c(F)c4c(cc23)CC2(C(=O)NC(=O)NC2=O)[C@H]2[C@H](C)O[C@H](C)CN42)n1` (relative stereo) [Example 63, (2R,4S,4aS)-rel-8-(3,5-dimethyl-1H-pyrazol-1-yl)-11-fluoro-2,4-dimethyl-1,2,4,4a-tetrahydro-2′H,6H-spiro[1,4-oxazino[4,3-a][1,2]oxazolo[4,5-g]quinoline-5,5′-pyrimidine]-2′,4′,6′(1′H,3′H)-trione]: the pIC50 is 5.57. As for `C[C@@H]1CN2c3c(cc4c(-c5cn[nH]c5)noc4c3F)CC3(C(=O)NC(=O)NC3=O)[C@H]2[C@H](C)O1` (relative stereo) [Example 64, (2R,4S,4aS)-rel-11-fluoro-2,4-dimethyl-8-(1H-pyrazol-4-yl)-1,2,4,4a-tetrahydro-2′H,6H-spiro[1,4-oxazino[4,3-a][1,2]oxazolo[4,5-g]quinoline-5,5′-pyrimidine]-2′,4′,6′(1′H,3′H)-trione], the pIC50 was 6.10. Same read-out and setting: the same measure for `Cc1nc(-c2noc3c(F)c4c(cc23)CC2(C(=O)NC(=O)NC2=O)[C@H]2[C@H](C)O[C@H](C)CN42)co1` (relative stereo) [Example 65, (2R,4S,4aS)-rel-11-fluoro-2,4-dimethyl-8-(2-methyl-1,3-oxazol-4-yl)-1,2,4,4a-tetrahydro-2′H,6H-spiro[1,4-oxazino[4,3-a][1,2]oxazolo[4,5-g]quinoline-5,5′-pyrimidine]-2′,4′,6′(1′H,3′H)-trione]: 5.96; for `Cc1cc(-c2noc3c(F)c4c(cc23)CC2(C(=O)NC(=O)NC2=O)[C@H]2[C@H](C)O[C@H](C)CN42)no1` (relative stereo) [Example 66, (2R,4S,4aS)-rel-11-fluoro-2,4-dimethyl-8-(5-methyl-1,2-oxazol-3-yl)-1,2,4,4a-tetrahydro-2′H,6H-spiro[1,4-oxazino[4,3-a][1,2]oxazolo[4,5-g]quinoline-5,5′-pyrimidine]-2′,4′,6′(1′H,3′H)-trione]: 6.40; for `Cc1noc(C)c1-c1noc2c(F)c3c(cc12)CC1(C(=O)NC(=O)NC1=O)[C@H]1[C@H](C)O[C@H](C)CN31` (relative stereo) [Example 67, (2R,4S,4aS)-rel-8-(3,5-dimethyl-1,2-oxazol-4-yl)-11-fluoro-2,4-dimethyl-1,2,4,4a-tetrahydro-2′H,6H-spiro[1,4-oxazino[4,3-a][1,2]oxazolo[4,5-g]quinoline-5,5′-pyrimidine]-2′,4′,6′(1′H,3′H)-trione]: 5.49. With `C[C@@H]1CN2c3c(cc4c(-c5nccn5C)noc4c3F)CC3(C(=O)NC(=O)NC3=O)[C@@H]2[C@H](C)O1` (relative stereo) [Example 68, (2R,4S,4aR)-rel-11-fluoro-2,4-dimethyl-8-(1-methyl-1H-imidazol-2-yl)-1,2,4,4a-tetrahydro-2′H,6H-spiro[1,4-oxazino[4,3-a][1,2]oxazolo[4,5-g]quinoline-5,5′-pyrimidine]-2′,4′,6′(1′H,3′H)-trione], the pIC50 was 6.15. For the molecule `C[C@@H]1CN2c3c(cc4c(-c5cn(C)cn5)noc4c3F)CC3(C(=O)NC(=O)NC3=O)[C@H]2[C@H](C)O1` (relative stereo) [Example 69, (2R,4S,4aS)-rel-11-fluoro-2,4-dimethyl-8-(1-methyl-1H-imidazol-4-yl)-1,2,4,4a-tetrahydro-2′H,6H-spiro[1,4-oxazino[4,3-a][1,2]oxazolo[4,5-g]quinoline-5,5′-pyrimidine]-2′,4′,6′(1′H,3′H)-trione], the pIC50 was 4.77. Same read-out and setting: under `C[C@@H]1CN2c3c(cc4c(-c5cncn5C)noc4c3F)CC3(C(=O)NC(=O)NC3=O)[C@H]2[C@H](C)O1` (relative stereo) [Example 70, (2R,4S,4aS)-rel-11-fluoro-2,4-dimethyl-8-(1-methyl-1H-imidazol-5-yl)-1,2,4,4a-tetrahydro-2′H,6H-spiro[1,4-oxazino[4,3-a][1,2]oxazolo[4,5-g]quinoline-5,5′-pyrimidine]-2′,4′,6′(1′H,3′H)-trione] stands 6.30; under `Cc1ncsc1-c1noc2c(F)c3c(cc12)CC1(C(=O)NC(=O)NC1=O)[C@@H]1[C@@H](C)O[C@@H](C)CN31` (relative stereo) [Example 71, (2R,4S,4aS)-rel-11-fluoro-2,4-dimethyl-8-(4-methyl-1,3-thiazol-5-yl)-1,2,4,4a-tetrahydro-2′H,6H-spiro[1,4-oxazino[4,3-a][1,2]oxazolo[4,5-g]quinoline-5,5′-pyrimidine]-2′,4′,6′(1′H,3′H)-trione], 6.05; under `C[C@H]1CN2c3c(cc4c(-c5cccnn5)noc4c3F)CC3(C(=O)NC(=O)NC3=O)[C@@H]2[C@@H](C)O1` (relative stereo) [Example 73, (2R,4S,4aS)-rel-11-fluoro-2,4-dimethyl-8-(pyridazin-3-yl)-1,2,4,4a-tetrahydro-2′H,6H-spiro[1,4-oxazino[4,3-a][1,2]oxazolo[4,5-g]quinoline-5,5′-pyrimidine]-2′,4′,6′(1′H,3′H)-trione], 6.30. As for `Cc1nsc2c(F)c3c(cc12)CC1(C(=O)NC(=O)NC1=O)[C@H]1[C@H](C)O[C@H](C)CN31` (relative stereo) [Example 75, (2R,4S,4aS)-rel-11-fluoro-2,4,8-trimethyl-1,2,4,4a-tetrahydro-2′H,6H-spiro[1,4-oxazino[4,3-a][1,2]thiazolo[4,5-g]quinoline-5,5′-pyrimidine]-2′,4′,6′(1′H,3′H)-trione], the pIC50 is 6.70. In the case of `C[C@@H]1CN2c3c(cc4c(-c5nccnc5Cl)noc4c3F)CC3(C(=O)NC(=O)NC3=O)[C@H]2[C@H](C)O1` (relative stereo) [Example 78, (2R,4S,4aS)-rel-8-(3-chloropyrazin-2-yl)-11-fluoro-2,4-dimethyl-2,4,4a,6-tetrahydro-1H,1′H-spiro[isoxazolo[4,5-g][1,4]oxazino[4,3-a]quinoline-5,5′-pyrimidine]-2′,4′,6′(3′H)-trione], the pIC50 was 6.10. On to `C[C@@H]1CN2c3c(cc4c(-c5cncc(Cl)n5)noc4c3F)CC3(C(=O)NC(=O)NC3=O)[C@H]2[C@H](C)O1` (relative stereo) [Example 79, (2R,4S,4aS)-rel-8-(6-chloropyrazin-2-yl)-11-fluoro-2,4-dimethyl-2,4,4a,6-tetrahydro-1H,1′H-spiro[isoxazolo[4,5-g][1,4]oxazino[4,3-a]quinoline-5,5′-pyrimidine]-2′,4′,6′(3′H)-trione], for which the pIC50 was 6.10. Turning to `CSc1cnc(-c2noc3c(F)c4c(cc23)CC2(C(=O)NC(=O)NC2=O)[C@H]2[C@H](C)O[C@H](C)CN42)cn1` (relative stereo) [Example 80, (2R,4S,4aS)-rel-11-fluoro-2,4-dimethyl-8-(5-(methylthio)pyrazin-2-yl)-2,4,4a,6-tetrahydro-1H,1′H-spiro[isoxazolo[4,5-g][1,4]oxazino[4,3-a]quinoline-5,5′-pyrimidine]-2′,4′,6′(3′H)-trione], the pIC50 is 5.77.

As for `C[C@@H]1CN2c3c(cc4c(Cn5cncn5)noc4c3F)CC3(C(=O)NC(=O)NC3=O)[C@H]2[C@H](C)O1` (relative stereo) [Example 81, (2R,4S,4aS)-rel-8-((1H-1,2,4-triazol-1-yl)methyl)-11-fluoro-2,4-dimethyl-2,4,4a,6-tetrahydro-1H,1′H-spiro[isoxazolo[4,5-g][1,4]oxazino[4,3-a]quinoline-5,5′-pyrimidine]-2′,4′,6′(3′H)-trione], the pIC50 was 5.52. As to `C[C@@H]1CN2c3c(cc4c(-c5ccncc5)noc4c3F)CC3(C(=O)NC(=O)NC3=O)[C@H]2[C@H](C)O1` (relative stereo) [Example 82, (2R,4S,4aS)-rel-11-fluoro-2,4-dimethyl-8-(pyridin-4-yl)-2,4,4a,6-tetrahydro-1H,1′H-spiro[isoxazolo[4,5-g][1,4]oxazino[4,3-a]quinoline-5,5′-pyrimidine]-2′,4′,6′(3′H)-trione], the negative logarithm of the IC50 (pIC50) is 6.70.

`C[C@@H]1CN2c3c(cc4c(-c5scnc5C(=O)N5CCOCC5)noc4c3F)CC3(C(=O)NC(=O)NC3=O)[C@H]2[C@H](C)O1` (relative stereo) [Example 85, (2R,4S,4aS)-rel-11-fluoro-2,4-dimethyl-8-[4-(morpholin-4-ylcarbonyl)-1,3-thiazol-5-yl]-1,2,4,4a-tetrahydro-2′H,6H-spiro[1,4-oxazino[4,3-a][1,2]oxazolo[4,5-g]quinoline-5,5′-pyrimidine]-2′,4′,6′(1′H,3′H)-trione]: the pIC50 is 4.77.
